Laboratory results as given in US8471009B2, “(EN) 2-alkylamino-3-arylsulfonyl-cycloalcano [e OR d] pyrazolo [1,5-A]pyrimidines / antagonists of serotonin 5-HT6 receptors, methods for the production and the use thereof” (priority 2008, dated 2013).

Experiments:
[1] = target: T1, recombinant human 5-HT6 receptors (Homo sapiens, UniProt P50406); experiment: Competitive radioligand binding ([3H] Lysergic acid diethylamide) to membranes of HeLa cells expressing recombinant human 5-HT6 receptors; details: 1.5 nM [3H] Lysergic acid diethylamide, 120 min, 37° C., HeLa cell membranes; for IC50: read-out: IC50 of serotonin 5-HT6 receptor inhibition in the setting of competitive binding; for Ki: read-out: Ki of serotonin 5-HT6 receptor inhibition in the setting of competitive binding
T1 construct: expressed in transfected cells; host or cells: HeLa (membrane preparation)
Description: Activity determination of serotonin 5-HT6 receptor antagonists of the general formula 1 in the setting of competitive binding to serotonin 5-HT6 receptors.
Screening of disclosed compounds for their potential ability to interact with serotonin 5-HT6 receptors was carried out by method of radioligand binding. For this purpose membrane species were prepared from expressing recombinant human 5-HT6 receptors HeLa cells by means of their homogenization in glass homogenizer with subsequent separation of plasmatic membranes from cell nucli, mitochondria's and cell wreckages by differential centrifugation. […] Mol Pharmacol. 43:320-327, 1993]. In the preferred embodiment membrane preparations were incubated with radioligand (1.5 nM [^3H] Lysergic acid diethylamide) without and in the presence of investigated compounds for 120 min at 37° C. in medium consisting of […], pH 7.4, 150 mM NaCl, 2 mM Ascorbic Acid, 0.001% BSA. After incubation the samples were filtered in vacuo on glass-microfiber filters G/F (Millipor, USA), filters were washed three times with cold solution of medium and radioactivity was measured by scintillation counter MicroBeta 340 (PerkinElmer, USA). Nonspecific binding which made up 30% of overall binding was determined by incubation of membrane preparations with radioligand in the presence of 5 μM Serotonin (5-HT). Methiothepin was used as positive control. Binding of tested compounds with the receptor was determined by their ability to displace the radioligand and expressed in percent of displacement. The percent of displacement was calculated according to the following equation:
[formula] wherein: TA—was overall radioactivity in the presence of radioligand only, CA—was radioactivity in the presence of radioligand and tested compound and NA—was radioactivity in the presence of radioligand and Serotonin (5 μM).
Table 4 presents the test results for some serotonin 5-HT6 receptor antagonists of general formulas 1 and 2 in the setting of competitive binding to serotonin 5-HT6 receptors, testifying their high activity towards serotonin 5-HT6 receptors.

[2] = system: memory disturbed by Scopolamine; experiment: Passive Avoidance of mice in the Shuttle Chamber, memory disturbed by Scopolamine; type: in vivo; details: aged male BALB/c mice; Scopolamine 0.3 mg/kg, injected 30 minutes before training; retest in 22-24 hours
Description: A shuttle chamber (Ugo Basile, Italy) consisted of two sections was used. The walls of one section were opaque while the other section had transparent cover. The sections were connected through a hole which could be overlapped by vertical door. The floor was made of transverse metal bars on which DC current impulses could be fed. Experiments were carried out in aged male mice of BALB/c line weighing 20-24 grams.
On the first day of testing 30 minutes before training mice were injected intraintestinally with physiological solutions of Scopolamine (0.3 mg/kg) or Scopolamine in combination with active ingredient 1.1(1). Each group consisted of at least 8 animals. Animals were placed in light section, and latent period of the first entry into dark chamber was registered. Then vertical door was closed and the animal was punished by 0.6 mA DC current for 3 seconds. After that the animal was taken back to its homecage. In 22-24 hours the same animal was placed again in light section of the shuttle chamber and latent period of its first entry into dark section, the total time of its stay in light section and the number of entries into dark section, was registered. Each monitoring lasted for 5 minutes.
Testing was carried out during the day time in isolated laboratory using white noise at level of about 70 decibel above human hearing threshold. […]

[3] = target: T2, serotonin 5-HT6 receptor (Homo sapiens, UniProt P50406); experiment: Functional assay: antagonism of serotonin-induced intracellular cAMP (LANCE cAMP) in HEK 293 cells expressing 5-HT6 receptor; type: cell-based; details: HEK 293 cells with expressed 5-HT6 receptor, read-out: IC50 of serotonin 5-HT6 receptor inhibition in the setting of functional assay
T2 construct: expressed in transfected cells; host or cells: HEK 293
Description: Determination of antagonistic activity of compounds of general formula 1 towards 5-HT6 receptors. Compounds of general formula 1 were tested for their ability to prevent 5-HT6 receptors activation by serotonin. HEK 293 cells (cells of human embryo's kidney) with artificially expressed 5-HT6 receptor, activation of which by serotonin leads to increasing the concentration of intracellular cAMP were used. The content of intracellular cAMP was determined using reagent kit LANCE cAMP (PerkinElmer) according to the method described by the manufacturer of the kit [http://las.perkinelmer.com/content/Manuals/MAN_LANCEcAMP384KitUser.pdf]. Effectiveness of compounds was estimated by their ability to reduce the content of intracellular cAMP induced by serotonin. Table 3 presents ICso values of serotonin 5-HT6 receptor inhibition by antagonists of general formula 1 and 2 in the setting of functional assay. The data given testify their high antagonistic activity.

[4] = system: mice behavior in elevated plus maze; experiment: Mice Behavior in the Elevated Plus Maze (anxiolytic action); type: in vivo; details: five minutes
Excerpt: Anxiolytic (tranquilizing) action of compounds of general formulas 1 and 2 in the test “Mice Behavior in the Elevated Plus Maze”. The length of each arm of the maze is 30 cm, width is 5 cm, and height of walls is 15 cm. Two opposite arms are closed from both sides and end faces by transparent walls, the other two arms are lit and opened. A mouse was placed in the center of maze, and for the next five minutes the number of entries into opened and closed arms and the time spent in each type of arms was registered. […] The animals usually avoid opened arms (the preference index is between 0.2 and 0.3). Compounds with tranquilizing action increase this index up to 0.5-0.6 or even more and reduce the number of defecations without changing the overall motion activity of the mice (the total number of entries to the arms).

[5] = system: memory disturbed by MK-801; experiment: Passive Avoidance of mice in the Shuttle Chamber, memory disturbed by MK-801; type: in vivo; details: MK-801 0.1 mg/kg, injected 30 minutes before training
Description: The testing was carried out as in example 7. On the first day of testing 30 minutes before training the mice were injected intraintestinally with physiological solution of MK-801 (0.1 mg/kg). Concurrently, physiological solution of MK-801 in combination with active ingredient 1.1(1) was injected intraintestinally to independent groups of mice before training.

T1 sequence (P50406 whole entry): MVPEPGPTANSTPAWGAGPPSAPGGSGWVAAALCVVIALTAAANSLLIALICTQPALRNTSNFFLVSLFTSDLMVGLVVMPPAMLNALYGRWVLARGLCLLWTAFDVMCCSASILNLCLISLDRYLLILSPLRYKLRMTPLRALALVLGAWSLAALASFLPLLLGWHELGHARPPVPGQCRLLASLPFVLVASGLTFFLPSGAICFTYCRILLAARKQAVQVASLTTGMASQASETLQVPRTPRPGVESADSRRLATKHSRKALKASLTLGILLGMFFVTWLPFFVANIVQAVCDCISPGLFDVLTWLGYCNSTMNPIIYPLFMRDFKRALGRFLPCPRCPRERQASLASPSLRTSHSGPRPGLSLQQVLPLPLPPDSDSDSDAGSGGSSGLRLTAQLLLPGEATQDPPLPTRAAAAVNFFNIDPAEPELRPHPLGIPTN
T2 sequence (P50406 whole entry): as above

SMILES | IC50 [1] | Ki [1] | IC50 [3] | Nootropic action (enhancement of memory disturbed by Scopolamine) [2] | Anxiolytic (tranquilizing) action [4] | Nootropic action (enhancement of memory disturbed by MK-801) [5]
CNc1nn2c3c(cnc2c1S(=O)(=O)c1ccccc1)CCC3 [1.1(1), 2-methylamino-3-(phenylsulfonyl)-7,8-dihydro-6H-cyclopenta[e]pyrazolo[1,5-a]pyrimidine] | 0.157 nM | 0.073 nM | 4.8 nM | nootropic action | anxiolytic (tranquilizing) action which is comparable with the activity of Buspirone and Lorasepam | nootropic effect
CNc1nn2c3c(cnc2c1S(=O)(=O)c1ccccc1)CCCC3 [1.2(1), 2-methylamino-3-(phenylsulfonyl)-6,7,8,9-tetrahydrocyclohexa[e]pyrazolo[1,5-a]pyrimidine] | 0.241 nM | 0.112 nM | 4.4 nM |  |  | 
CNc1nn2cc3c(nc2c1S(=O)(=O)c1ccccc1)CCCC3 [2(1)] | 1.07 nM | 0.499 nM | 7.5 nM |  |  | 

Now from value to compound, other results behind:

IC50 [1] | Ki [1] | IC50 [3] | SMILES | Nootropic action (enhancement of memory disturbed by Scopolamine) [2] | Anxiolytic (tranquilizing) action [4] | Nootropic action (enhancement of memory disturbed by MK-801) [5]
0.436 nM | 0.202 nM | 7 nM | CNc1nn2c3c(c(C)nc2c1S(=O)(=O)c1ccccc1)CCC3 [1.1(3), 5-methyl-2-methylamino-3-(phenylsulfonyl)-7,8-dihydro-6H-cyclopenta[e]pyrazolo[1,5-a]pyrimidine] |  |  | 
1.05 nM | 0.49 nM |  | CNc1nn2c3c(c(C)nc2c1S(=O)(=O)c1ccccc1)CCCC3 [1.2(3), 5-methyl-2-methylamino-(3-phenylsulfonyl)-6,7,8,9-tetrahydrocyclohexa[e]pyrazolo[1,5-a]pyrimidine] |  |  | 
0.551 nM | 0.256 nM | 15.5 nM | CNc1nn2c(C)c3c(nc2c1S(=O)(=O)c1ccccc1)CCCC3 [2(2)] |  |  | 
